Measurements as given in ChEMBL document CHEMBL1138435, “A novel antibacterial iridoid and triterpene from Caiophora coronata” (2003).
Converted amounts (≈) assume the structure as drawn. The source made the active and inactive calls. No cut-off for these calls is given here.

Legend:
Staphylococcus aureus [1] = experiment: Antimicrobial activity against methicillin-sensitive Staphylococcus aureus 375 after 18 hrs by twofold serial microbroth dilution method; format: functional; conditions: Staphylococcus aureus, 375, 18 h
Staphylococcus aureus [2] = experiment: Antimicrobial activity against methicillin-resistant Staphylococcus aureus 310 after 18 hrs by twofold serial microbroth dilution method; format: functional; conditions: Staphylococcus aureus, 310, 18 h
Bacillus subtilis = experiment: Antimicrobial activity against Bacillus subtilis 327 after 18 hrs by twofold serial microbroth dilution method; format: functional; conditions: Bacillus subtilis, 327, 18 h
Enterococcus faecium = experiment: Antimicrobial activity against vancomycin-resistant Enterococcus faecium 379 after 18 hrs by twofold serial microbroth dilution method; format: functional; conditions: Enterococcus faecium, 379, 18 h
Escherichia coli [3] = experiment: Antimicrobial activity against Escherichia coli 442 after 18 hrs by twofold serial microbroth dilution method; format: functional; conditions: Escherichia coli, 442, 18 h
Escherichia coli [4] = experiment: Antimicrobial activity against Escherichia coli 389 after 18 hrs by twofold serial microbroth dilution method; format: functional; conditions: Escherichia coli, 389, 18 h
Candida albicans = experiment: Antimicrobial activity against Candida albicans 54 after 18 hrs by agar diffusion method; format: functional
Escherichia coli [5] = experiment: Antimicrobial activity against Escherichia coli 442 after 18 hrs by agar diffusion method; format: functional, organism-based

**Q.** With `C[C@@H]1[C@@H]2COC(=O)C[C@H]2C[C@@H]1O` [ISOBOONEIN] as the molecule, how does the MIC (Staphylococcus aureus [1]) read?
**A.** > 128 µg/mL

**Q.** And the MIC (Staphylococcus aureus [2])?
**A.** > 128 µg/mL

**Q.** What about the MIC (Bacillus subtilis) of the same molecule?
**A.** > 128 µg/mL

**Q.** And the MIC (Enterococcus faecium)?
**A.** > 128 µg/mL

**Q.** What about the MIC (Escherichia coli [3]) of the same molecule?
**A.** > 128 µg/mL

**Q.** And the MIC (Escherichia coli [4])?
**A.** > 128 µg/mL

**Q.** What about the “inhibition zone (IZ)” value (Candida albicans) of the same molecule?
**A.** inactive

**Q.** What about the “inhibition zone (IZ)” value (Escherichia coli [5]) of the same molecule?
**A.** inactive

**Q.** With `C[C@H]1[C@H](C)CC[C@]2(C)CC[C@]3(C(=O)O)C(=CC[C@@H]4[C@@]5(C)[C@H](O)C[C@H](O)C(C)(C)[C@@H]5CC[C@]43C)[C@H]12` as the molecule, how does the MIC (Staphylococcus aureus [1]) read?
**A.** 4 µg/mL (≈ 8.46 µM)

**Q.** And the MIC (Staphylococcus aureus [2])?
**A.** 4 µg/mL (≈ 8.46 µM)

**Q.** What about the MIC (Bacillus subtilis) of the same molecule?
**A.** 2 µg/mL (≈ 4.23 µM)

**Q.** And the MIC (Enterococcus faecium)?
**A.** 4 µg/mL (≈ 8.46 µM)

**Q.** And the MIC (Escherichia coli [4])?
**A.** 16 µg/mL (≈ 33.8 µM)

**Q.** What about the “inhibition zone (IZ)” value (Candida albicans) of the same molecule?
**A.** inactive

**Q.** What about the “inhibition zone (IZ)” value (Escherichia coli [5]) of the same molecule?
**A.** inactive

**Q.** Which results are given for `CO[C@H]1OC(=O)[C@H](C)[C@@H]2[C@@H]1[C@@H](CO)C[C@@H]2O` [CAIOPHORAENIN]?
**A.** MIC (Staphylococcus aureus [1]): > 128 µg/mL; MIC (Staphylococcus aureus [2]): > 128 µg/mL; MIC (Bacillus subtilis): > 128 µg/mL; MIC (Enterococcus faecium): > 128 µg/mL; MIC (Escherichia coli [3]): > 128 µg/mL; MIC (Escherichia coli [4]): > 128 µg/mL; inhibition zone (IZ) (Candida albicans): inactive; inhibition zone (IZ) (Escherichia coli [5]): inactive

**Q.** Which results are given for `CC1(C)S[C@@H]2[C@H](NC(=O)Cc3ccccc3)C(=O)N2[C@H]1C(=O)O` [PENICILLIN G]?
**A.** MIC (Staphylococcus aureus [1]): 0.06 µg/mL (≈ 0.179 µM); MIC (Staphylococcus aureus [2]): 128 µg/mL (≈ 383 µM); MIC (Bacillus subtilis): 32 µg/mL (≈ 95.7 µM); MIC (Enterococcus faecium): 32 µg/mL (≈ 95.7 µM); MIC (Escherichia coli [4]): 4 µg/mL (≈ 12 µM); MIC (Candida albicans; Candida albicans, 54, 18 h): > 128 µg/mL
